# According to patent US20020151562A1, “Compositions and methods for treating allergic fungal sinusitis” (priority 2001, published 2002):
# Entries after “also recorded” stand apart in the source; their conditions may differ.
# Tested on: patients diagnosed to have allergic fungal sinusitis resistant to treatment
# Test: Nasal Spray Study: patient questionnaire after two months of intranasal treatment
# Settings: for effectiveness in treating allergic fungal sinusitis, allergic rhinitis and asthma (symptom relief): extremely low dose, patients resistant to standard treatments including corticosteroids; for side effects: low dose, patients tested
# Description: Fifty-four patients were selected on the basis of their failure to respond to intranasal corticosteroids for the treatment of acute and chronic sinusitis and allergic rhinitis and positive skin tests to fungi. […] The age range was 6 years to 71 years.
# Each patient was instructed to use two sprays in each nostril twice daily, AM and PM for a total of four sprays per nostril per day. Treatment lasted for two months.
# Therefore, the status of the patients' symptoms were documented over a period of two months.
# The following statements were posed to the patients after treatment for two months with regard to their symptoms before and after the course of treatment.
# [1] = intranasal, listed as compound of formula I
compound,measurement,setting,value
"CC(C)(O)c1ccccc1CC[C@@H](SCC1(CC(=O)[O-])CC1)c1cccc(/C=C/c2ccc3ccc(Cl)cc3n2)c1.[Na+] [sodium salt of montelukast, montelukast]","Total Number of Patients Post Treatment Reporting Improvement (sinus pain, post nasal drip and nasal congestion worse in cold weather)","52 tested, 21 reporting prior to treatment, intranasal, two months",14 patients
same,"Total Number of Patients Post Treatment that Reported Improvement (worry that sinus pain, post nasal drip and nasal congestion affect health and make it difficult to sleep)","52 tested, 31 reporting prior to treatment, intranasal, two months",30 patients
same,"Total Number of Patients Reporting Improvement (sinus and nasal congestion worse around tobacco smoke, fumes or strong odors)","52 tested, 42 reporting prior to treatment, intranasal, two months",24 patients
same,"Total Number of Patients Post Treatment Reporting Improvement (sleeping trouble due to coughing and choking attacks, post nasal drip and sinus pain)","52 treated, 29 reporting prior to treatment, intranasal, two months",28 patients
same,"Total Number of Patients Post Treatment that Reported Improvement (allergy medicine does not control nasal congestion, sinusitis, post nasal drip and ear congestion)","52 treated, 42 reporting prior to treatment, intranasal, two months",42 patients
same,"Total Number of Patients Reporting Improvement (respiratory infection goes into sinuses, ears and nose)","52 treated, 44 reporting prior to treatment, intranasal, two months",27 patients
same,"Total Number of Patients Post Treatment Reporting Improvement (dust, pollen and pets cause nasal congestion, sinus pain, ear pain and dizziness)","52 treated, 45 reporting prior to treatment, intranasal, two months",37 patients
same,patients with positive results and alleviation of major symptoms,"at the end of two months, of the fifty-two patients, intranasal saline spray",forty-two
same,"effectiveness in treating allergic fungal sinusitis, allergic rhinitis and asthma (symptom relief)",intranasal,"effective not only in relieving nasal congestions, sinus pain, post nasal drip, throat pain and serous otitis media, but it also helped their asthma; also recorded: effective"
same,"effectiveness in treating allergic fungal sinusitis, allergic rhinitis and asthma (symptom relief)",[1],improvement in these non-responders was noticed
same,side effects,intranasal,no significant side effects
same,side effects,[1],without harmful effects
same,time to some recovery after application,"nasal spray, low dosages",within one day
same,Total Number of Patients Reporting Improvement of Breathing Post-Treatment,"statement: trouble breathing or cough when walking or doing simple chores, 52 treated, 34 with trouble breathing before treatment, intranasal, two months",24 patients
